Assay results as given in patent US20190373892A1, “FORMALDEHYDE-FREE PRESERVATIVES FOR HIGHLY SUSCEPTIBLE PRODUCTS” (Troy Corporation, priority 2018, published 2019).
In brackets after ≈: the same amount, converted by molar mass.

Experiments:
[1] = tested on: Pseudomonas aeruginosa (ATCC #10145); assay: Minimum Inhibitory Concentration (MIC) testing by microbroth dilution; format: cell-based; conditions: ATCC10145, 72 h, 1x Nutrient Broth, 35° C., 3 days, no growth via turbidity
[2] = tested on: Alcaligenes faecalis (ATCC #25094), Enterobacter aerogenes (ATCC #13048), Escherichia coli (ATCC #11229), Pseudomonas aeruginosa (ATCC #10145) and Pseudomonas …; assay: Bacterial challenge test in laboratory-made wallboard joint compound; format: cell-based; conditions: 200 ppm total active
Description: Because this bacterial challenge test is intended to test the performance of in-can preservatives during long-term storage, only the last day of each seven-day challenge is considered important. The test sample was inoculated with bacteria on the first day of each seven-day challenge.
Bacteria were inoculated into the laboratory-made test wallboard joint formulations at approximately 10^6 CFU/g at time equals zero on the first day of each seven-day cycle. Viability of the bacteria was monitored semi-quantitatively through streak analysis 1, 2, and 7 days after inoculation. This procedure was performed twice for a total of two to four seven-day cycles. A rating of “4” indicates heavy growth, while a rating of “0” indicates undetectable growth, defined as <10 CFU/g of material. Samples free of detectable growth after 7 days are considered to be well-preserved.
For comparison, a blank, unpreserved laboratory-made wallboard joint composition is shown, as well as a laboratory-made wallboard joint composition that is preserved with a commercial formaldehyde-producing preservative, comprising 78 wt % of 2,2′,2″-(hexahydro-1,3,5-triazine-1,3,5-triyl)-triethanol (HHT). The various preservatives were added to the laboratory-made wallboard joint compound at the levels shown, in ppm by weight.

MIC [1]: 30.8 µg/mL (≈ 204 µM)
Compound: O=c1[nH]sc2ccccc12 [BIT, 1,2-benzisothiazol-3(2H)-one]
Protection of wallboard joint compound in words [2]: neither 200 ppm BIT nor Ziram alone being capable of protecting the wallboard joint compound
